Source: paper PMC6934184, “Selective DNA-PKcs inhibition extends the therapeutic index of localized radiotherapy and chemotherapy” (The Journal of Clinical Investigation, 2019)

Target: T1, MAP2K1 (MEK1) (Homo sapiens, UniProt Q02750)
T1 construct: purchased Thermo Fisher Scientific (Life Technologies) SelectScreen
Assay: SelectScreen Z'LYTE
Format: biochemical
Details: ATP 100 µM
Protocol: The in vitro kinase selectivity of NU5455 was determined using the SelectScreen Broad Assay Panel (Thermo Fisher Scientific) involving activity and binding assays (Supplemental Table 1). […] Class IA PI3Ks were measured using the p85α subunit.
Kinase [ATP] % Assay Kinase [ATP] % Assay Kinase [ATP] % Assay Kinase [ATP] % Assay
DNA-PK Km app 98.3 Z LATS2 n/a 4.7 L KIT D820E n/a 1.3 L GSK3B (GSK3 beta) Km app -2.5 Z
PIK3C3 (hVPS34) Km app 85.9 A PRKCZ (PKC zeta) Km app 4.7 Z GRK1 n/a 1.3 L BMPR2 n/a -2.5 L
PIK3C2B (PI3K-C2 beta) 10 28.9 A FGFR1 Km app 4.7 Z BRSK2 n/a 1.2 L CDC42 BPB (MRCKB) Km app -2.5 Z
SNF1LK2 Km app 26.6 Z MINK1 Km app 4.6 Z NUAK1 (ARK5) Km app 1.2 A AMPK (A2/B2/G2) n/a -2.6 L
HCK Km app 18.0 Z CSF1R (FMS) Km app 4.3 Z CDK9/cyclin K n/a 1.0 L PRKG1 Km app -2.7 Z
NEK2 Km app 17.8 Z CSNK1G3 (CK1 gamma 3) Km app 4.2 Z NUAK2 n/a 1.0 L KIT T670E n/a -2.8 L
ALK Km app 17.3 Z STK32C (YANK3) n/a 4.2 L CDK2/cyclin O n/a 0.9 L ERBB4 (HER4) Km app -2.8 Z
FGFR3 K650M n/a 16.5 L STK22D (TSSK1) Km app 4.2 Z CAMKK2 (CaMKK beta) n/a 0.9 L PLK4 n/a -2.8 L
SIK3 n/a 16.1 L TAOK3 (JIK) n/a 4.2 L FGFR3 Km app 0.9 Z GRK7 Km app -3.0 Z
LYN A Km app 15.2 Z RPS6KA4 (MSK2) Km app 4.2 Z ULK2 n/a 0.9 L MAPKAPK2 Km app -3.1 Z
BMPR1B (ALK6) n/a 14.5 L PTK2B (FAK2) Km app 4.2 Z KIT D816V n/a 0.9 L FGFR4 Km app -3.1 Z
INSRR (IRR) Km app 14.1 Z CLK2 Km app 4.1 Z CAMK1 (CaMK1) 10 0.8 A CASK n/a -3.1 L
PLK2 Km app 14.1 Z STK24 (MST3) Km app 4.1 Z PTK6 (Brk) Km app 0.7 Z GRK5 Km app -3.2 Z
PRKACA (PKA) Km app 14.0 Z CAMK1D (CaMKI delta) Km app 4.1 Z CAMK2B (CaMKII beta) Km app 0.7 Z EGFR (ErbB1) T790M Km app -3.3 Z
EIF2AK2 (PKR) n/a 13.3 L INSR Km app 4.1 Z ACVR1 (ALK2) n/a 0.7 L PAK4 Km app -3.3 Z
PRKX Km app 12.5 Z IRAK1 Km app 4.0 A ABL1 H396P n/a 0.6 L DAPK3 (ZIPK) Km app -3.4 Z
FGR Km app 12.1 Z SRC N1 Km app 3.9 Z MERTK (cMER) A708S n/a 0.6 L RET M918T n/a -3.5 L
CLK1 Km app 11.7 Z SRPK2 Km app 3.9 Z MAPKAPK5 (PRAK) Km app 0.6 Z PRKCQ (PKC theta) Km app -3.7 Z
MARK3 Km app 11.4 Z RPS6KA6 (RSK4) Km app 3.8 Z AKT1 (PKB alpha) Km app 0.5 Z CAMKK1 (CAMKKA) n/a -3.8 L
PDGFRB (PDGFR beta) Km app 11.0 Z GRK6 Km app 3.7 Z NTRK3 (TRKC) Km app 0.4 Z FLT3 D835Y Km app -3.9 Z
PRKCN (PKD3) Km app 10.7 Z PKN1 (PRK1) Km app 3.6 Z ZAP70 Km app 0.3 Z ROCK2 Km app -4.1 Z
STK16 (PKL12) n/a 10.5 L MAP3K8 (COT) 100 3.5 Z CSNK1A1 (CK1 alpha 1) Km app 0.3 Z CHUK (IKK alpha) Km app -4.2 A
FES (FPS) Km app 10.4 Z FLT4 (VEGFR3) Km app 3.5 Z MYLK (MLCK) n/a 0.2 L AXL Km app -4.2 Z
ABL1 Km app 10.4 Z GRK4 Km app 3.5 Z MKNK2 (MNK2) n/a 0.2 L PIM2 Km app -4.3 Z
MUSK Km app 10.3 Z FRK (PTK5) Km app 3.4 Z AMPK (A1/B1/G3) n/a 0.2 L PAK1 Km app -4.4 Z
MAPK1 (ERK2) Km app 10.1 Z FYN A n/a 3.3 L MAP3K2 (MEKK2) n/a 0.1 L BMPR1A (ALK3) n/a -4.4 L
BRAF 100 9.9 Z CDK1/cyclin A2 n/a 3.3 L CDK8/cyclin C n/a 0.1 L STK4 (MST1) Km app -4.4 Z
IGF1R Km app 9.7 Z KIT V559D T670I n/a 3.1 L MARK2 Km app 0.1 Z PRKCH (PKC eta) Km app -4.6 Z
MAPK14 (p38 alpha) Km app 9.7 Z SPHK2 10 3.1 A ICK n/a 0.0 L SGKL (SGK3) Km app -4.6 Z
LCK Km app 9.6 Z FGFR3 G697C n/a 3.1 L FGFR2 Km app 0.0 Z PI4KB (PI4K beta) Km app -4.7 A
MAPK11 (p38 beta) Km app 9.5 Z RIPK2 n/a 3.1 L AKT2 (PKB beta) Km app 0.0 Z PRKCE (PKC epsilon) Km app -4.9 Z
SRC Km app 9.5 Z PAK6 Km app 3.0 Z EPHB2 Km app -0.1 Z PHKG1 Km app -5.0 Z
CHEK1 (CHK1) Km app 9.3 Z LYN B Km app 3.0 Z TGFBR2 n/a -0.1 L PDGFRA D842V Km app -5.0 Z
CAMK2D (CaMKII delta) Km app 9.3 Z DAPK2 n/a 2.9 L TEK (Tie2) Km app -0.1 Z PRKG2 (PKG2) Km app -5.1 Z
PLK1 Km app 9.2 Z EPHA4 Km app 2.9 Z AURKA (Aurora A) Km app -0.1 Z TYRO3 (RSE) Km app -5.1 Z
RET Y791F Km app 9.2 Z PIK3CG (p110 gamma) Km app 2.9 A KIT D816H n/a -0.2 L TAOK2 (TAO1) Km app -5.1 Z
FLT3 Km app 9.1 Z HIPK1 (Myak) Km app 2.8 Z KIT N822K n/a -0.2 L EPHB4 Km app -5.3 Z
MAPK10 (JNK3) 100 9.0 Z ADRBK2 (GRK3) Km app 2.8 Z PRKACG (PRKAC gamma) n/a -0.2 L AURKC (Aurora C) Km app -5.4 Z
CSNK2A2 (CK2 alpha 2) Km app 8.7 Z STK17B (DRAK2) n/a 2.7 L TEK (TIE2) Y1108F n/a -0.3 L JAK1 Km app -5.7 Z […]

T1 sequence (Q02750 whole entry): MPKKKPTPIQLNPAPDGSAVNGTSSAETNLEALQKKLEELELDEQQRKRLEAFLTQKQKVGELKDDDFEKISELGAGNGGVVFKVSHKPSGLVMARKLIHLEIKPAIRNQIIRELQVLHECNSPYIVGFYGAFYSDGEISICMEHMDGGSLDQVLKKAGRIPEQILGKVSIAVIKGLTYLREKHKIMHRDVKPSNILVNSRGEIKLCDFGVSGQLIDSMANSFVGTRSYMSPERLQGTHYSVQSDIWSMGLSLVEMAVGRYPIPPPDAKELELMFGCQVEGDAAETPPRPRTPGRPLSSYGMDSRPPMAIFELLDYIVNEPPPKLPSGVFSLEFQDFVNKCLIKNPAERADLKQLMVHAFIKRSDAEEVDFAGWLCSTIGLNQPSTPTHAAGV

## CN(C(=O)CN1CCOCC1)c1ccc2sc3c(-c4cccc5c(=O)cc(N6CC7CCC(C6)O7)oc45)cccc3c2c1 [NU5455]
  inhibition at 1 µM: 8.8%
